From paper PMC2605271 (Journal of clinical neuroscience : official journal of the …, 2008) come the findings set out here.

The target of test [1] is T1, serotonin transporter (SERT) (Homo sapiens, UniProt P31645). Kind of test: cell-based.
The target of test [2] is T1, serotonin transporter (SERT).
Test [3] deals with norepinephrine transporter (NET) (Homo sapiens, UniProt P23975). Particulars: 10^−7 M to 10^−3 M, 30 minutes, HEK-hNET cells.
The next test concerns NET protein expression. Kind of test: Immunoblotting of NET protein expression in HEK-hNET cells. The format is cell-based, human. As to conditions: 10^−6 M, 24 hours.

“Also recorded” adds a separate entry of the source. Bounds are passed on as bounds.

T1 sequence (P31645 whole entry): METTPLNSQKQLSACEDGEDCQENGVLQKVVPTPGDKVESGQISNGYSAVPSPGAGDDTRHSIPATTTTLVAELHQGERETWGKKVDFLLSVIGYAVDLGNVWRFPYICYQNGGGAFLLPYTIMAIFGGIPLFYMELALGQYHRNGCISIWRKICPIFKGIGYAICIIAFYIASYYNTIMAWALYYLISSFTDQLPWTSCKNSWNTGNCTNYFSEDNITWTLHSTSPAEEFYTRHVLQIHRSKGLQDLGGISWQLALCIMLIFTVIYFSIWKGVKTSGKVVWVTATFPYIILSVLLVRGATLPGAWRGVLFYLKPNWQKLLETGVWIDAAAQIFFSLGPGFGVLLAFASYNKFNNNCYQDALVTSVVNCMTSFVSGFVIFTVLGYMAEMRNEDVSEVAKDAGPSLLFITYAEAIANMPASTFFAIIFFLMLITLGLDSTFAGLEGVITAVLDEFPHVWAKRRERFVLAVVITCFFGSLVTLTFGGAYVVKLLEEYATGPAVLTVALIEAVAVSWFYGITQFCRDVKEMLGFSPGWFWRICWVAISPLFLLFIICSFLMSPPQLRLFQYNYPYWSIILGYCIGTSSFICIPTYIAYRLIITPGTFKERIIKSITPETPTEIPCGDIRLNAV
norepinephrine transporter (NET), sequence (P23975 whole entry): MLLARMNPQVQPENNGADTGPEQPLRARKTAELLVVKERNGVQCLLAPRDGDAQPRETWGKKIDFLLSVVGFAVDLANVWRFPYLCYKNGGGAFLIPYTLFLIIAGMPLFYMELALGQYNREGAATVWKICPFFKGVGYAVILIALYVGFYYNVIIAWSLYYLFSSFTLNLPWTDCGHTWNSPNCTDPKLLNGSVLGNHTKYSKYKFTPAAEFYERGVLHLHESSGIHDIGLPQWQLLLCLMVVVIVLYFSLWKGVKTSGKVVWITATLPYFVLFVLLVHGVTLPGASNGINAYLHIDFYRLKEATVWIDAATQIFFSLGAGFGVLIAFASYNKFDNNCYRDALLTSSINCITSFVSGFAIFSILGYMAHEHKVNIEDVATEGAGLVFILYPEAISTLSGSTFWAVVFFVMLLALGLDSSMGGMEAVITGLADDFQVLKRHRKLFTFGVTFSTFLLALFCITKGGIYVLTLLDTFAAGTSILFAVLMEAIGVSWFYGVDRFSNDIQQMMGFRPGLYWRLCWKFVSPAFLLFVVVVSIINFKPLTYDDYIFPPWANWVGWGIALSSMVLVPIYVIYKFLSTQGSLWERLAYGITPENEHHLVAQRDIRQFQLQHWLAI

`CCCC(C)C1(CC)C(=O)NC(=S)NC1=O` (stereo not shown) [Thiopental, thiopental] returned an EC50 in test [1] greater than 50 mM. In test [2], the “Effect on SERT function ([3H]-5-HT uptake)” value is listed as “failed to have any effect; also recorded: no effect”. The “Effect on NET function ([3H]-NE uptake)” value in test [3] is reported as “failed to have any effect; also recorded: no effect; also recorded: No evidence of inhibition”.
With `CNCCCN1c2ccccc2CCc2ccccc21` [desipramine], in the test on NET protein expression, the “Change in NET protein expression in response to chronic desipramine treatment” value was “no changes”.
